{"source": "patent US20250204520A1", "about": "“USE OF SODIUM SELENITE IN PREVENTION AND/OR A[…] TEA TREE SUNBURN” (ANHUI AGRICULTURAL UNIVERSITY, priority 2023, published 2025)", "type_in_all_cases": "in vivo, 'Huangjinye' tea tree variety", "key": {"[1]": {"tested_on": "tea tree sunburn", "assay": "Anti-sunburn test of different concentrations of selenium: disease index, incidence and control effect after simulated sunburn", "conditions": "for Incidence: foliar spray 4 days, simulated sunburn 4 h; for Disease index: foliar spray once a day for 4 days, simulated sunburn 34° C., 1600 μmol·m^−2·s^−1, 4 h; for Efficacy (control effect): calculated from disease index vs control group", "method": "A method for preventing and/or alleviating tea tree sunburn included: • Experimental base: artificial climate chamber of Anhui Agricultural University; • Experimental subjects: ‘Huangjinye’ tea tree variety; • Experimental procedure:\n2. Preparation of Na2SeO3 treatment solutions with different concentrations: 1.0, 2.0, 3.0, and 4.0 mg sodium selenite crystal powders were dissolved in 1 L of pure water (with final concentrations of 1.0, 2.0, 3.0, and 4.0 mg/L, respectively).\n3. Seedling cultivation: the purchased tea seedlings were planted in a flower pot with a diameter of 20 cm, where nutrient soil, vermiculite, and perlite were at a volume ratio of 2:1:1; growth environment: temperature 28° C., humidity 80%, and light intensity 500 μmol·m^−2·s^−1.\n(§1) 4. Anti-sunburn test of different concentrations of selenium: tea seedlings with roughly the same growth rate were sprayed with 0, 1.0, 2.0, 3.0, and 4.0 mg/L sodium selenite solution on the surface of their leaves at a distance of 3 cm to 5 cm from the leaves until liquid droplets were falling from the leaves, spray once a day for continuous 4 days; while a control group was sprayed with the same amount of water.\n(§2) After an interval of 2 d after the end of the external treatment, the tea seedlings were placed in an artificial climate chamber (temperature: 34° C., humidity: 60%, light intensity: 1600 μmol·m^−2·s^−1) to allow simulated sunburn treatment for 4 h, and then observed, photographed, and statistics were made.\nThe number of leaves at each disease level was counted according to the degree of disease susceptibility, and the average incidence rate and disease index were calculated according to the formula to determine the severity of tea leaf diseases. Incidence rate=number of diseased leaves/total number of investigated leaves×100%, disease index=[Σ(number of leaves at each disease level×representative value of disease level)/(total number of investigated leaves×representative value of highest level)]×100; control effect (%)=[(control group condition index-treatment group condition index)/control group condition index]×100%."}, "[2]": {"tested_on": "tea tree sunburn", "assay": "Fv/Fm value of tea trees treated with exogenous selenium under sunburn", "conditions": "under sunburn conditions (water treatment group: 42.09%)", "method": "as §1, §2\nInfluences of different concentrations of selenium on the apparent morphology of tea trees under sunburn: compared with the selenium treatment group, the water treatment group had the largest number of burned leaves and the largest lesion area. […] The decrease in Fv/Fm value of tea trees in the 4 selenium treatment groups was smaller than that in the water treatment group, where the Fv/Fm value of the treatment with a selenium concentration of 3.0 mg/L had the minimum decrease. Moreover, external spraying of sodium selenite could indeed alleviate the tea tree sunburn, and 3.0 mg/L Na2SeO3 solution had the best effect."}, "[3]": {"tested_on": "tea tree", "assay": "Malondialdehyde (MDA) content of tea tree leaves after spraying sodium selenite, with and without simulated sunburn", "conditions": "3 mg/L Na2SeO3 sprayed", "method": "A method for preventing and/or alleviating tea tree sunburn included: • Experimental base: artificial climate chamber of Anhui Agricultural University; • Experimental subjects: ‘Huangjinye’ tea tree variety;\n2. Preparation of Na2SeO3 treatment solution: 3.0 mg sodium selenite crystal powder was dissolved in 1 L of pure water (concentration: 3.0 mg/L).\n3. Seedling growth environment: the purchased tea seedlings were planted in a flower pot with a diameter of 20 cm (nutrient soil, vermiculite, and perlite) were at a volume ratio of 2:1:1, and then placed in a glass greenhouse.\nNormal growth environment: temperature 28° C., humidity 80%, and light intensity500 μmol·m^−2·s^−1.\nSunburn-simulated environment: temperature 34° C., humidity 60%, and light intensity 1,600 μmol·m^−2·s^−1.\n4. […]\nAfter sunburn treatment for 4 h, 0.5 g samples of the 3rd and 4th leaves of mature tea tree leaves were added in a mortar separately, added with 5 mL of 5% (v/v) trichloroacetic acid and ground. […] After rapid cooling and centrifugation at 4,000 r/min for 10 min, a supernatant was detected using a UV spectrophotometer at […], 600 nm, and 450 nm separately, and the data were recorded and analyzed. […]"}, "[4]": {"conditions": "selenium concentration 1.0 mg/L"}, "[5]": {"conditions": "selenium concentration 2.0 mg/L"}, "[6]": {"conditions": "selenium concentration 3.0 mg/L"}, "[7]": {"conditions": "selenium concentration 4.0 mg/L"}}}
{"smiles": "O=[Se]([O-])[O-].[Na+].[Na+]", "note": "[selenium, sodium selenite]", "values": [{"measurement": "Number of sunburned leaves and area of diseased spots (apparent morphology)", "setting": "[1]; concentration of 3.0 mg/L, among the four spraying concentrations, under sunburn", "result": "least amount and the smallest lesion area"}, {"measurement": "Reduction of incidence of sunburn compared with the group without selenium treatment", "setting": "[1]; [4]", "result": 33.83, "unit": "%"}, {"measurement": "Incidence", "setting": "[1]; [4]", "result": "12.11 ± 3.38", "unit": "b %"}, {"measurement": "Disease index", "setting": "[1]; [4]", "result": "1.13 ± 0.26", "unit": "bc"}, {"measurement": "Efficacy (control effect)", "setting": "[1]; [4]", "result": 42.61, "unit": "%"}, {"measurement": "Reduction of incidence of sunburn compared with the group without selenium treatment", "setting": "[1]; [5]", "result": 29.62, "unit": "%"}, {"measurement": "Incidence", "setting": "[1]; [5]", "result": "12.88 ± 0.66", "unit": "ab %"}, {"measurement": "Disease index", "setting": "[1]; [5]", "result": "1.13 ± 0.35", "unit": "bc"}, {"measurement": "Efficacy (control effect)", "setting": "[1]; [5]", "result": 42.61, "unit": "%"}, {"measurement": "Reduction of incidence of sunburn compared with the group without selenium treatment", "setting": "[1]; [6]", "result": 78.14, "unit": "%"}, {"measurement": "Incidence", "setting": "[1]; [6]", "result": "4.00 ± 0.00", "unit": "d %"}, {"measurement": "Disease index", "setting": "[1]; [6]", "result": "0.22 ± 0.08", "unit": "days"}, {"measurement": "Efficacy (control effect)", "setting": "[1]; [6]", "result": 89.38, "unit": "%"}, {"measurement": "Reduction of incidence of sunburn compared with the group without selenium treatment", "setting": "[1]; [7]", "result": 9.84, "unit": "%"}, {"measurement": "Incidence", "setting": "[1]; [7]", "result": "16.50 ± 3.80", "unit": "a %"}, {"measurement": "Disease index", "setting": "[1]; [7]", "result": "1.62 ± 0.23", "unit": "ab"}, {"measurement": "Efficacy (control effect)", "setting": "[1]; [7]", "result": 17.58, "unit": "%"}, {"measurement": "Decrease of Fv/Fm value compared with the control CK", "setting": "[2]; [4]", "result": 30.29, "unit": "%"}, {"measurement": "Decrease of Fv/Fm value compared with the control CK", "setting": "[2]; [5]", "result": 23.72, "unit": "%"}, {"measurement": "Decrease of Fv/Fm value compared with the control CK", "setting": "[2]; [6]", "result": 17.86, "unit": "%"}, {"measurement": "Decrease of Fv/Fm value compared with the control CK", "setting": "[2]; [7]", "result": 34.32, "unit": "%"}, {"measurement": "Reduction of MDA content compared with the control", "setting": "[3]; non-sunburn growth conditions (Se vs CK)", "result": 22.14, "unit": "%"}, {"measurement": "Decrease of MDA content compared with the water treatment group under sunburn", "setting": "[3]; simulated sunburn 4 h (SeH vs CKH)", "result": 19.89, "unit": "%"}]}
